Measured values reported in article PMC10017709, “Structural basis of selective cannabinoid CB2 receptor activation” (Nature Communications, 2023).
Values belong to the compound of their own block, whether it stands above or below them.

Experiments:
[1] = test system: cisplatin-induced nephropathy; assay: Cisplatin-induced nephropathy in wild type mice; type: in vivo, C57BL/6J mice; conditions: for BUN / CREA: 72 h; for BUN / CREA / HNE (HNE adducts, ELISA) / NT (protein nitration, ELISA) / IL1b expression (real-time PCR) / TNFa expression (real-time PCR): mean, n = 6; for HNE (HNE adducts, ELISA) / NT (protein nitration, ELISA) / IL1b expression (real-time PCR) / TNFa expression (real-time PCR): kidney; for HNE (HNE adducts, ELISA) / NT (protein nitration, ELISA): vehicle mean 1.0; for IL1b expression (real-time PCR) / TNFa expression (real-time PCR): vehicle mean 1.00
Method: Ten to twelve-week-old male/female C57BL/6J mice were obtained from The Jackson Laboratory (Bar Harbor, ME, USA). CB2R knockout mice (CB2R^−/−) and their wild-type littermates (CB2R^+/+) were developed as described previously and had been backcrossed to a C57BL/6J background. All animals were kept in a temperature-controlled environment (20–22 °C) with a 12 h light–dark cycle and were always allowed free access to food and water. All animal experiments reported in this manuscript complied with the National Institutes of Health “Guide for the Care and Use of Laboratory Animals” (NIH publication 86–23 revised 1985) and were approved by the Institutional Animal Care and Use Committee of the National Institute on Alcohol Abuse and Alcoholism (Bethesda, MD).
The well-established model of cisplatin-induced nephropathy was used[63]. Mice (CB2R^−/− and CB2R^+/+) were sacrificed 72 h after a single injection of cisplatin (cis-diamine platinum (II) dichloride (Sigma#P4394) 25 mg/kg i.p.; freshly dissolved in physiological saline) by cervical dislocation under deep anesthesia with 5% isoflurane, for collection of blood and tissue samples. LEI-102 was given i.p. or by oral gavage (p.o.) at 0.3, 3.0, and 10 mg/kg every day, starting 1.5 h before the cisplatin exposure. The drug was dissolved in a vehicle of DMSO:Tween 80:saline, 1:1:18. After administration of LEI‐102, mice were killed by cervical dislocation under deep anesthesia with 5% isoflurane, for collection of blood and tissue samples at the time described in the figure. The tetrad assay in mice has previously been described in detail.
Markers of kidney dysfunction (BUN and CREA), histopathology (PAS staining), immunostaining or ELISA for 3-nitrotyrosine (3-NT; Cell Biolabs #STA-305) and 4-hydroxynonenal (4-HNE; Cell Biolabs#STA-838), and real-time PCR (Primers from Qiagen, SYBER Green Vita Scientific#MEIF01301, High-Capacity cDNA Reverse Transcription Kit, Thermo Fisher Scientific#4368813) for inflammatory cytokines were performed as previously described. Tubular damage scores were determined based on the percentage of tubules showing epithelial necrosis where 0= normal; 1, <10%; 2, 10–25%; 3, 26–75%; 4, >75%. Tubular necrosis was defined as the loss of the proximal tubular brush border, blebbing of apical membranes, tubular epithelial cell detachment from the basement membrane, or intraluminal aggregation of cells and proteins. The morphometric examination was performed in a blinded manner. Ten fields were scored from each mouse kidneys at 200× magnification, and average scores were determined for each mouse. For final quantification graph, average tubular damage scores of six mice/group were plotted.

CB2R-L185^ECL2H = CB2R-L185^ECL2H (Homo sapiens, UniProt P34972, L185H); assay: [3H]CP55,940 displacement assay, CB2R L185H mutant; type: binding; conditions: read-out: pKi (converted)
[2] = test system: chronic abdominal pain associated with Crohn’s disease; conditions: 14 patients with chronic abdominal pain associated with Crohn’s disease; cited from earlier work

Chain of CB2R-L185^ECL2H (P34972 whole entry L185H): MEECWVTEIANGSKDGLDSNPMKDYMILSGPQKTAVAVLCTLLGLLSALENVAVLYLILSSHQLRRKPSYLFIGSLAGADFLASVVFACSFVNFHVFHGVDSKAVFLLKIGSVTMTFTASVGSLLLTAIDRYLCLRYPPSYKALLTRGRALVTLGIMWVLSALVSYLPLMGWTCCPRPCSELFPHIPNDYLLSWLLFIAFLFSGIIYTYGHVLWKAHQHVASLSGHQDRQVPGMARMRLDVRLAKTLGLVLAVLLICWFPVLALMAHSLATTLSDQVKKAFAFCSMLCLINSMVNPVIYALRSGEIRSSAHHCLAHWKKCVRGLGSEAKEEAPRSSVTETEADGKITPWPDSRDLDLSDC

Ki (CB2R-L185^ECL2H): 50.1 nM
Compound: CC(C)CN1C(=O)CN(Cc2ccc(-c3ccc(F)c(CNC4CCOCC4)n3)cc2)C1=O [LEI-102, 1-(4-(5-fluoro-6-(((tetrahydro-2H-pyran-4-yl)amino)methyl)pyridin-2-yl)benzyl)-3-isobutylimidazolidine-2,4-dione]
BUN ([1]; Cis + LEI-102 i.p. 0.3 mg/kg every day): 143.0 mg/dL
CREA ([1]; Cis + LEI-102 i.p. 0.3 mg/kg): 1.6 mg/dL
BUN ([1]; Cis + LEI-102 i.p. 3 mg/kg): 32.8 mg/dL
CREA ([1]; Cis + LEI-102 i.p. 3 mg/kg): 0.7 mg/dL
BUN ([1]; Cis + LEI-102 i.p. 10 mg/kg): 24.8 mg/dL
CREA ([1]; Cis + LEI-102 i.p. 10 mg/kg): 0.6 mg/dL
BUN ([1]; Cis + LEI-102 p.o. 3 mg/kg): 53.5 mg/dL
CREA ([1]; Cis + LEI-102 p.o. 3 mg/kg): 1.0 mg/dL
BUN ([1]; Cis + LEI-102 p.o. 10 mg/kg): 31.8 mg/dL
CREA ([1]; Cis + LEI-102 p.o. 10 mg/kg): 0.53 mg/dL
lipid peroxidation and protein nitration in kidney ([1]; LEI-102 10 mg/kg by i.p. or p.o.): decreased
functional markers of cisplatin-induced kidney injury (serum creatinine, blood urea nitrogen) ([1]; LEI-102 p.o. or i.p., 72 h after cisplatin 25 mg/kg i.p.): dose-dependent attenuation
pro-inflammatory cytokines TNFα and IL1β elevated by cisplatin-induced injury ([1]; LEI-102 treated mice): attenuated
HNE (HNE adducts, ELISA) ([1]; Cis + LEI-102 i.p. 10 mg/kg): 2.7
NT (protein nitration, ELISA) ([1]; Cis + LEI-102 i.p. 10 mg/kg): 2.4
IL1b expression (real-time PCR) ([1]; Cis + LEI-102 i.p. 10 mg/kg): 1.90
TNFa expression (real-time PCR) ([1]; Cis + LEI-102 i.p. 10 mg/kg): 1.59
HNE (HNE adducts, ELISA) ([1]; Cis + LEI-102 p.o. 10 mg/kg): 2.4
NT (protein nitration, ELISA) ([1]; Cis + LEI-102 p.o. 10 mg/kg): 2.8
IL1b expression (real-time PCR) ([1]; Cis + LEI-102 p.o. 10 mg/kg): 2.71
TNFa expression (real-time PCR) ([1]; Cis + LEI-102 p.o. 10 mg/kg): 1.42

Compound: CC(C)(C)[C@@H](CO)NC(=O)c1nn(-c2c[n+]([O-])ccn2)c2c1C[C@@H]1C[C@H]21 [APD371]
abdominal pain scores [2]: improvement
adverse events [2]: mild-to-moderate adverse events
